Earlier results in PubChem BioAssay AID1259409 (Chemical Carcinogenesis Research Information System (CCRIS), 2018).

Test system: rodent chemically induced tumor inhibition, incidence and multiplicity
Assay: CCRIS tumor inhibitor studies

For CCOC(=O)/C=C(C)/C=C/C=C(C)/C=C/c1c(C)cc(O)c(C)c1C, the “tumour outcome (control, treated, inhibition, significance)” value (Carcinogen: 7,12-DIMETHYLBENZ[A]ANTHRACENE, 57-97-6, Dose [Inhibitor]: 140 NMOL IN 0.2 ML ACETONE 2/WK (D 1 AND D 4 OF EACH WK) 1 HR BEFORE EACH PROMOTER APPLICATION STARTING 14 D AFTER CARCI, Route [Inhibitor]: DERMAL, Species: MOUSE, Strain/Sex: CD-1/FEMALE, Target Tissue: Type of Lesion: SKIN: PAPILLOMA, Dose [Carcinogen]: 0.2 UMOL IN 0.2 ML ACETONE ONCE, Promoter: 12-O-TETRADECANOYLPHORBOL-13-ACETATE, 16561-29-8) is listed as 90%, 95%, -6%, not significant.

For S=C=Nc1cc2c3ccccc3ccc2c2ccccc12, the outcome (Carcinogen: BENZO[A]PYRENE, 50-32-8, Dose [Inhibitor]: 0, 5 UMOL IN ACETONE 4 HR PRIOR TO CARCINOGEN DOSE (STUDY DURATION: 20 WK), Route [Inhibitor]: DERMAL, Species: MOUSE, Strain/Sex: STRAIN-A/FEMALE, Target Tissue: Type of Lesion: SKIN: TUMOR, Dose [Carcinogen]: 0.1 UMOL IN ACETONE ONCE, Promoter: 12-O-TETRADECANOYLPHORBOL-13-ACETATE, 16561-29-8) is listed as 85%, 74%, 13%, not significant at 15 wk; 95%, 80%, 16%, not significant at 20 wk.

For Cc1cccc(C(=O)/C=C/c2cccc(O)c2)c1, the “tumour outcome (control, treated, inhibition, significance)” value (Carcinogen: 7,12-DIMETHYLBENZ[A]ANTHRACENE, 57-97-6, Dose [Inhibitor]: 0, 1.62 MICROMOLAR 2/WK FOR 18 WK APPLIED SIMULTANEOUSLY WITH PROMOTER DOSE (STUDY DURATION: 18 WK), Route [Inhibitor]: DERMAL, Species: MOUSE, Strain/Sex: ICR/FEMALE, Target Tissue: Type of Lesion: SKIN: TUMOR, Dose [Carcinogen]: 100 UG ONCE, Promoter: 12-O-TETRADECANOYLPHORBOL-13-ACETATE, 16561-29-8) is given as 90%, 20%, 78%, not calculated.

In the case of O=C(CCCN1CCC(O)(c2ccc(Cl)cc2)CC1)c1ccc(F)cc1, the “tumour outcome (control, treated, inhibition, significance)” value (Carcinogen: AZOXYMETHANE, 25843-45-2, Dose [Inhibitor]: 0, 2 MG/KG BW SUSPENDED IN 1 ML/MG OLIVE OIL 1/2 D FOR STUDY DURATION (STUDY DURATION: 30 WK), Route [Inhibitor]: SUBCUTANEOUS, Species: RAT, Strain/Sex: WISTAR/MALE, Target Tissue: Type of Lesion: COLON: TUMOR, Dose [Carcinogen]: 7.4 MG/KG IN 0.9% SALINE 1/WK FOR 10 WK) is listed as 9/17 (53%), 3/19 (16%), 70%, p<0.05.

In the case of C/C(=C\c1ccc(C(=O)O)cc1)c1ccc2c(c1)C(C)(C)CCS2, the “tumour outcome (control, treated, inhibition, significance)” value (Carcinogen: 7,12-DIMETHYLBENZ[A]ANTHRACENE, 57-97-6, Dose [Inhibitor]: 1.7 NMOL IN 0.2 ML ACETONE 1 HR PRIOR TO EACH PROMOTER DOSE FOR 12 WK (STUDY DURATION: 14 WK), Route [Inhibitor]: DERMAL, Species: MOUSE, Strain/Sex: SENCAR/FEMALE, Target Tissue: Type of Lesion: SKIN: PAPILLOMA, Dose [Carcinogen]: 200 NMOL IN 0.2 ML ACETONE ONCE, Promoter: 12-O-TETRADECANOYLPHORBOL-13-ACETATE, 16561-29-8) is listed as 100%, 100%, 0%, not calculated, the “tumour outcome (control, treated, inhibition, significance)” value (Carcinogen: 7,12-DIMETHYLBENZ[A]ANTHRACENE, 57-97-6, Dose [Inhibitor]: 1.7 NMOL IN 0.2 ML ACETONE 1 HR PRIOR TO EACH PROMOTER DOSE FOR 20 WK (STUDY DURATION: 22 WK), Route [Inhibitor]: DERMAL, Species: MOUSE, Strain/Sex: CD-1/FEMALE, Target Tissue: Type of Lesion: SKIN: PAPILLOMA, Dose [Carcinogen]: 200 NMOL IN 0.2 ML ACETONE ONCE, Promoter: 12-O-TETRADECANOYLPHORBOL-13-ACETATE, 16561-29-8) is listed as 94%, 93%, 1%, not calculated and the “tumour outcome (control, treated, inhibition, significance)” value (Carcinogen: 7,12-DIMETHYLBENZ[A]ANTHRACENE, 57-97-6, Dose [Inhibitor]: 17 NMOL IN 0.2 ML ACETONE 1 HR PRIOR TO EACH PROMOTER DOSE FOR 12 WK (STUDY DURATION: 14 WK), Route [Inhibitor]: DERMAL, Species: MOUSE, Strain/Sex: SENCAR/FEMALE, Target Tissue: Type of Lesion: SKIN: PAPILLOMA, Dose [Carcinogen]: 200 NMOL IN 0.2 ML ACETONE ONCE, Promoter: 12-O-TETRADECANOYLPHORBOL-13-ACETATE, 16561-29-8) is listed as 100%, 90%, 10%, not calculated. For the same molecule, the “tumour outcome (control, treated, inhibition, significance)” value (Carcinogen: 7,12-DIMETHYLBENZ[A]ANTHRACENE, 57-97-6, Dose [Inhibitor]: 17 NMOL IN 0.2 ML ACETONE 1 HR PRIOR TO EACH PROMOTER DOSE FOR 20 WK (STUDY DURATION: 22 WK), Route [Inhibitor]: DERMAL, Species: MOUSE, Strain/Sex: CD-1/FEMALE, Target Tissue: Type of Lesion: SKIN: PAPILLOMA, Dose [Carcinogen]: 200 NMOL IN 0.2 ML ACETONE ONCE, Promoter: 12-O-TETRADECANOYLPHORBOL-13-ACETATE, 16561-29-8) was 94%, 38%, 60%, not calculated, the “tumour outcome (control, treated, inhibition, significance)” value (Carcinogen: 7,12-DIMETHYLBENZ[A]ANTHRACENE, 57-97-6, Dose [Inhibitor]: 170 NMOL IN 0.2 ML ACETONE 1 HR PRIOR TO EACH PROMOTER DOSE FOR 12 WK (STUDY DURATION: 14 WK), Route [Inhibitor]: DERMAL, Species: MOUSE, Strain/Sex: SENCAR/FEMALE, Target Tissue: Type of Lesion: SKIN: PAPILLOMA, Dose [Carcinogen]: 200 NMOL IN 0.2 ML ACETONE ONCE, Promoter: 12-O-TETRADECANOYLPHORBOL-13-ACETATE, 16561-29-8) was 100%, 38%, 62%, not calculated and the “tumour outcome (control, treated, inhibition, significance)” value (Carcinogen: 7,12-DIMETHYLBENZ[A]ANTHRACENE, 57-97-6, Dose [Inhibitor]: 170 NMOL IN 0.2 ML ACETONE 1 HR PRIOR TO EACH PROMOTER DOSE FOR 20 WK (STUDY DURATION: 22 WK), Route [Inhibitor]: DERMAL, Species: MOUSE, Strain/Sex: CD-1/FEMALE, Target Tissue: Type of Lesion: SKIN: PAPILLOMA, Dose [Carcinogen]: 200 NMOL IN 0.2 ML ACETONE ONCE, Promoter: 12-O-TETRADECANOYLPHORBOL-13-ACETATE, 16561-29-8) was 94%, 24%, 74%, not calculated.

In the case of CC(C)=CCC/C(C)=C/CC/C(C)=C/C=C/C(C)=C/C(=O)O, the outcome (Carcinogen: 3-METHYL-4-DIMETHYLAMINOAZOBENZENE [3732-90-9], Dose [Inhibitor]: 0, 10, 40, 80 MG/KG BW DAILY FOR 16 WK, Dose [Inhibitor]: 0, 10, 40, 80 MG/KG BW DAILY FOR 16 WK, Route [Inhibitor]: ORAL (GAVAGE), Species: RAT, Strain/Sex: F344/MALE (40,29)/(40,30)/(40,30)/(40,29), Target Tissue: Type of Lesion: LIVER: HEPATOCELLULAR CARCINOMA, Dose [Carcinogen]: 0.06% FOR 16 WK) is listed as “(17/29) 57%; (16/30) 53%, 9%; (4/30) 13%, 77%, p<0.05; (2/29) 7%, 89%, p<0.05” and the outcome (Carcinogen: 3-METHYL-4-DIMETHYLAMINOAZOBENZENE [3732-90-9], Dose [Inhibitor]: 0, 10, 40, 80 MG/KG BW DAILY FOR 16 WK, Dose [Inhibitor]: 0, 10, 40, 80 MG/KG BW DAILY FOR 16 WK, Route [Inhibitor]: ORAL (GAVAGE), Species: RAT, Strain/Sex: F344/MALE (40,29)/(40,30)/(40/30)/(40,29), Target Tissue: Type of Lesion: LIVER: HEPATOCELLULAR ADENOMA, Dose [Carcinogen]: 0.06% FOR 16 WK) is listed as “(29/29) 100%; (30/30) 100%, 0%; (26/30) 86.7%, 13.3%; (24/29) 82.4%, 17.6%”.

In the case of CCCC(=O)O, the “tumour outcome (control, treated, inhibition, significance)” value (Carcinogen: 7,12-DIMETHYLBENZ[A]ANTHRACENE, 57-97-6, Dose [Inhibitor]: 0, 6% IN BASAL DIET BEGINNING 1 WK PRIOR TO CARCINOGEN DOSE AND CONTINUING FOR DURATION OF STUDY (STUDY DURATION: >15 WK, Route [Inhibitor]: ORAL, Species: RAT, Strain/Sex: SPRAGUE-DAWLEY/FEMALE, Target Tissue: Type of Lesion: MAMMARY GLAND: ADENOCARCINOMA, Dose [Carcinogen]: 5 MG IN 0.5 ML CORN OIL ONCE, Promoter: NONE USED) is given as 10/26 (38%), 4/20 (20%), 47%, not significant, the “tumour outcome (control, treated, inhibition, significance)” value (Carcinogen: 7,12-DIMETHYLBENZ[A]ANTHRACENE, 57-97-6, Dose [Inhibitor]: 0, 6% IN BASAL DIET BEGINNING 1 WK PRIOR TO CARCINOGEN DOSE AND CONTINUING FOR DURATION OF STUDY (STUDY DURATION: >15 WK, Route [Inhibitor]: ORAL, Species: RAT, Strain/Sex: SPRAGUE-DAWLEY/FEMALE, Target Tissue: Type of Lesion: MAMMARY GLAND: CARCINOMA, Dose [Carcinogen]: 5 MG IN 0.5 ML CORN OIL ONCE, Promoter: NONE USED) is given as 11/26 (42%), 8/20 (40%), 5%, not significant and the “tumour outcome (control, treated, inhibition, significance)” value (Carcinogen: 7,12-DIMETHYLBENZ[A]ANTHRACENE, 57-97-6, Dose [Inhibitor]: 0, 6% IN DIET CONTAINING 20% SAFFLOWER MARGARINE BEGINNING 1 WK PRIOR TO CARCINOGEN DOSE AND CONTINUING FOR DURATION OF, Route [Inhibitor]: ORAL, Species: RAT, Strain/Sex: SPRAGUE-DAWLEY/FEMALE, Target Tissue: Type of Lesion: MAMMARY GLAND: ADENOCARCINOMA, Dose [Carcinogen]: 5 MG IN 0.5 ML CORN OIL ONCE, Promoter: NONE USED) is given as 14/19 (74%), 8/20 (40%), 46%, p<0.05. For the same molecule, the “tumour outcome (control, treated, inhibition, significance)” value (Carcinogen: 7,12-DIMETHYLBENZ[A]ANTHRACENE, 57-97-6, Dose [Inhibitor]: 0, 6% IN DIET CONTAINING 20% SAFFLOWER MARGARINE BEGINNING 1 WK PRIOR TO CARCINOGEN DOSE AND CONTINUING FOR DURATION OF, Route [Inhibitor]: ORAL, Species: RAT, Strain/Sex: SPRAGUE-DAWLEY/FEMALE, Target Tissue: Type of Lesion: MAMMARY GLAND: CARCINOMA, Dose [Carcinogen]: 5 MG IN 0.5 ML CORN OIL ONCE, Promoter: NONE USED) was 16/19 (84%), 11/20 (55%), 35%, p<0.05.
